Measured values: article PMC12683216, “Using High‐Throughput Screening to Identify Crosslinking Peptides That Control Cell‐Mediated Matrix Degradation” (Advanced Healthcare Materials, 2025)
Where a SMILES comes first, the peptide text is derived from it. [ ]: non-standard residue; d: D form. βAla = NCCC(=O)O

Columns and labels:
Format in all cases: in vitro ADME, human
[1] = Soluble peptide degradation, Cells condition (LC-MS); settings: human
Method: (§1) Most in vitro protease activity assays incubate the peptides or proteins of interest with a single protease in a buffered solution. However, the kinetics of protease activity in tissues are complex and highly regulated, and both the activity^[ [37] ^] and substrate specificity^[ [38] ^] of proteases can be modulated through association with other proteins.^[ [39] ^] Most MMP‐substrate peptides are also cleaved by multiple proteases,^[ [5] ^] and within the context of biomaterials, the most important factor is typically how the combined activity of all proteases, rather than the activity of any specific protease, modifies the local microenvironment versus the activity due to any individual enzyme. We synthesized peptides identified in the TAILS proteomic screen that were present on proteins that are known to be secreted or found on the cell membrane, pooled them, and added them either to cell culture media on top of cells, the “Cells” condition, or conditioned media lacking cells, the “Media” condition (Figure 2A). The fraction of peptides remaining after 24 h in each condition was then quantified using LC‐MS. Soluble proteases should be present in both conditions, however, membrane‐type proteases should primarily be found in the samples containing cells and not the conditioned media samples. A key benefit of this approach is that it surveys the total functional proteolytic activity, including the effects of inhibitors and co‐factors, and quantifies the degradation rate of soluble peptides by the complete secretome of different cell types.
(§2) hUVECs (75000 per well) or hMSCs (36000 per well) were seeded into a 48 well plate, and 500 µL media was added to the wells. […] The peptide libraries were dissolved at a stock solution of 10 mM total peptide content. For libraries containing 38 peptides, 95 µL of the stock solution was added to each well; for libraries with 19 peptides, 47.5 µL was added to each well, and media was taken at 0 and 24 h. Add 4 µL of acetic acid to all collected media in the LC‐MS plates and store them in a −80 °C freezer to prevent further proteolytic degradation. From each sample, 10 µL of crude solution was introduced by the LC‐MS through a Thermo Scientific Vanquish LC System (Thermo Fisher Scientific), which outputted to a Thermo Scientific LTQ XL Linear Ion Trap Mass Spectrometer (Thermo Fisher Scientific). The sampled mixture was trapped on a column (ProntoSIL C18 AQ, 120 Å, 3 µm, 2.0 x 50 mm HPLC Column, PN 0502F184PS030, MAC‐MOD Analytical Inc.). The samples were loaded onto the column with a solvent containing acetonitrile/water, 5:95 (v/v) containing 1% acetic acid at a flow rate of 300 µL min^−1 and held for 1 min. The sample was then eluted from the column with a linear gradient of 5–40% Solvent B (1% acetic acid in acetonitrile) at the same flow rate for 5 min. This was followed by a 1 min ramp up to 100% Solvent B, where it was re‐equilibrated with Solvent A (1% acetic acid) to 5% solvent B over the course of 1 min and held there for 2 min. The column temperature was kept at a constant 29 °C, and the mass spectrometer was operated in positive ion mode. Using a Heated ESI, the Source Voltage was set to 4.1 kV, and the capillary temperature was 350 °C. For non‐library degradation studies, 2.5 µL of 10 mM peptide stock solution for each peptide was added.
(§3) In the MMP‐14 inhibitor study, the MMP‐14 inhibitor NSC 405 020 (Cayman Chemical Company) was dissolved in DMSO to make a 10 mM stock solution and stored in −20 °C freezer. 0.5 µL MMP‐14 inhibitor stock solution was added to each well to achieve a 10 µM final concentration.
(§4) For all degradation studies using soluble peptides, a non‐proteolytically degradable NH2‐βFβAβAβAβAβAβA‐amide (βFβA6) peptide, where βF is β‐phenylalanine and βA is β‐alanine, was added at a 50 µM concentration and used as an internal standard. Peptide degradation ratios were measured by LC‐MS and analyzed by Xcalibur. […]

MMP-14 = experiment: as above; settings: human, cells or culture medium
Method: as §1, §2, §3, §4

[2] = Soluble peptide degradation, Media condition (cell-conditioned media, LC-MS); settings: human; for remaining at 24 h: LC-MS
Method: as §1, §2
(§5) To assess the activity of the conditioned media, the media were divided into two equal portions. One portion was used for a standard degradation study, while the other was cultured for an additional 24 h before the PanMMP and KLVADLMASAE were added. After 24 h of incubation, the media were collected for further analysis. To assess the impact of recombinant MMP‐14 on PanMMP and KLVADLMASAE, recombinant MMP‐14 (antibodies.com) was dissolved in the media at a concentration of 0.5 nM. The remaining steps followed the standard degradation study protocol. […]

[3] = as above; settings: human, 24 h, LC-MS
Method: as §1, §2, §5

hUVECs = experiment: Soluble peptide degradation, Cells condition (LC-MS); settings: Figure 3B heatmap; split-and-pool libraries KLVADX1X2ASAE in media on hUVECs; 24 h; LC-MS, ratio to βFβA6; N = 2
Method: as §1, §2, §3, §4

[4] = hMSCs in culture with fresh media (Cells condition), Figure 3B heatmap, split-and-pool libraries KLVADX1X2ASAE (19 or 38 peptides per library) in media on hMSCs, 24 h, LC-MS, ratio to βFβA6, N = 2, read-out: Fraction of peptide remaining after 24 hours: hMSC Cells
[5] = hUVECs in culture with fresh media (Cells condition), Figure 3B heatmap, split-and-pool libraries KLVADX1X2ASAE in media on hUVECs, 24 h, LC-MS, ratio to βFβA6, N = 2, read-out: Fraction of peptide remaining after 24 hours: hUVEC Cells
[6] = hMSC-conditioned media without cells (Media condition), Figure 3B heatmap, split-and-pool libraries KLVADX1X2ASAE in hMSC-conditioned media without cells, ratio to βFβA6, N = 2, read-out: Fraction of peptide remaining after 24 hours: hMSC Media
[7] = hUVEC-conditioned media without cells (Media condition), Figure 3B heatmap, split-and-pool libraries KLVADX1X2ASAE in hUVEC-conditioned media without cells, ratio to βFβA6, N = 2, read-out: Fraction of peptide remaining after 24 hours: hUVEC Media
[8] = hMSCs in culture with fresh media (Cells condition), Figure 2B heatmap, pooled TAILS-derived soluble peptides (Ac-βAla N-terminus, βAla-amide C-terminus) in media on hMSCs (36000 per well, 48 well plate, 500 µL), 24 h, LC-MS, ratio to βFβA6 internal standard, 24 h / 0 h, N = 5, read-out: Fraction of peptide remaining at 24 hours: hMSC Cells
[9] = Figure 2B heatmap, pooled TAILS-derived soluble peptides in 24 h hMSC-conditioned media without cells, ratio to βFβA6 internal standard, 24 h / 0 h, N = 5, read-out: Fraction of peptide remaining at 24 hours: hMSC Media
[10] = Figure 2B heatmap, pooled TAILS-derived soluble peptides in 24 h hUVEC-conditioned media without cells, ratio to βFβA6 internal standard, 24 h / 0 h, N = 5, read-out: Fraction of peptide remaining at 24 hours: hUVEC Media

CC(=O)NCCC(=O)N[C@@H](CCCCN)C(=O)N[C@@H](CC(C)C)C(=O)N[C@H](C(=O)N[C@@H](C)C(=O)N[C@@H](CC(=O)O)C(=O)N1CCC[C@H]1C(=O)N[C@@H](CC(C)C)C(=O)N[C@@H](C)C(=O)N[C@@H](CO)C(=O)N[C@@H](C)C(=O)N[C@@H](CCC(=O)O)C(=O)NCCC(N)=O)C(C)C [KLVAD-PL] (Ac-[βAla]KLVADPLASAE[βAla]-NH2)
remaining at 24 h ([1]; cells or culture medium): 83%
remaining at 24 h ([1]; cells or culture medium, Fraction of peptide remaining after 24 hours: hMSC Cells): 51%
remaining at 24 h, 50 µM (MMP-14): 99%
remaining at 24 h, 50 µM (MMP-14; Fraction of peptide remaining after 24 hours: hMSC +Inhibitor): 94%
remaining at 24 h, 50 µM ([2]; cells or culture medium): 91%

CC(=O)NCCC(=O)N[C@@H](CCCCN)C(=O)N[C@@H](CC(C)C)C(=O)N[C@H](C(=O)N[C@@H](C)C(=O)N[C@@H](CC(=O)O)C(=O)NCC(=O)N[C@@H](Cc1ccc(O)cc1)C(=O)N[C@@H](C)C(=O)N[C@@H](CO)C(=O)N[C@@H](C)C(=O)N[C@@H](CCC(=O)O)C(=O)NCCC(N)=O)C(C)C [Gly-Tyr] (Ac-[βAla]KLVADGYASAE[βAla]-NH2)
remaining at 24 h [1, 4]: 48%
remaining at 24 h [1, 5]: 88%
remaining at 24 h [2, 6]: 74%
remaining at 24 h [3, 7]: 100%

CC(=O)NCCC(=O)N[C@@H](CCCCN)C(=O)N[C@@H](CC(C)C)C(=O)N[C@H](C(=O)N[C@@H](C)C(=O)N[C@@H](CC(=O)O)C(=O)N[C@@H](CC(=O)O)C(=O)N[C@@H](CCC(N)=O)C(=O)N[C@@H](C)C(=O)N[C@@H](CO)C(=O)N[C@@H](C)C(=O)N[C@@H](CCC(=O)O)C(=O)NCCC(N)=O)C(C)C [Asp-Gln] (Ac-[βAla]KLVADDQASAE[βAla]-NH2)
remaining at 24 h [1, 4]: 39%
remaining at 24 h [1, 5]: 84%
remaining at 24 h [2, 6]: 75%
remaining at 24 h [3, 7]: 102%

CC(=O)NCCC(=O)N[C@@H](CCCCN)C(=O)N[C@@H](CC(C)C)C(=O)N[C@H](C(=O)N[C@@H](C)C(=O)N[C@@H](CC(=O)O)C(=O)N[C@@H](CC(N)=O)C(=O)N1CCC[C@H]1C(=O)N[C@@H](C)C(=O)N[C@@H](CO)C(=O)N[C@@H](C)C(=O)N[C@@H](CCC(=O)O)C(=O)NCCC(N)=O)C(C)C [Asn-Pro] (Ac-[βAla]KLVADNPASAE[βAla]-NH2)
remaining at 24 h ([1]; cells or culture medium, Figure 3B heatmap, split-and-pool libraries KLVADX1X2ASAE (19 or 38 peptides per library) in media on hMSCs, 24 h, LC-MS, ratio to βFβA6, N = 2, read-out: Fraction of peptide remaining after 24 hours: hMSC Cells): 54%
remaining at 24 h ([1]; cells or culture medium, Figure 3B heatmap, split-and-pool libraries KLVADX1X2ASAE in media on hUVECs, 24 h, LC-MS, ratio to βFβA6, N = 2, read-out: Fraction of peptide remaining after 24 hours: hUVEC Cells): 91%
remaining at 24 h ([2]; cells or culture medium, Figure 3B heatmap, split-and-pool libraries KLVADX1X2ASAE in hMSC-conditioned media without cells, ratio to βFβA6, N = 2, read-out: Fraction of peptide remaining after 24 hours: hMSC Media): 84%
remaining at 24 h ([3]; cells or culture medium, Figure 3B heatmap, split-and-pool libraries KLVADX1X2ASAE in hUVEC-conditioned media without cells, ratio to βFβA6, N = 2, read-out: Fraction of peptide remaining after 24 hours: hUVEC Media): 98%

CC(=O)NCCC(=O)N[C@@H](CCCCN)C(=O)N[C@@H](CC(C)C)C(=O)N[C@H](C(=O)N[C@@H](C)C(=O)N[C@@H](CC(=O)O)C(=O)N[C@@H](CO)C(=O)N[C@@H](CC(=O)O)C(=O)N[C@@H](C)C(=O)N[C@@H](CO)C(=O)N[C@@H](C)C(=O)N[C@@H](CCC(=O)O)C(=O)NCCC(N)=O)C(C)C [Ser-Asp] (Ac-[βAla]KLVADSDASAE[βAla]-NH2)
remaining at 24 h [1, 4]: 48%
remaining at 24 h [1, 5]: 84%
remaining at 24 h [2, 6]: 71%
remaining at 24 h [3, 7]: 94%

CC(=O)NCCC(=O)N[C@@H](CCCCN)C(=O)N[C@@H](CC(C)C)C(=O)N[C@H](C(=O)N[C@@H](C)C(=O)N[C@@H](CC(=O)O)C(=O)N[C@@H](CCC(=O)O)C(=O)N1CCC[C@H]1C(=O)N[C@@H](C)C(=O)N[C@@H](CO)C(=O)N[C@@H](C)C(=O)N[C@@H](CCC(=O)O)C(=O)NCCC(N)=O)C(C)C [Glu-Pro] (Ac-[βAla]KLVADEPASAE[βAla]-NH2)
remaining at 24 h [1, 4]: 49%
Fraction of peptide remaining after 24 hours: hUVEC Cells (hUVECs): 0.89
remaining at 24 h [2, 6]: 79%
remaining at 24 h [3, 7]: 96%

CC[C@H](C)[C@H](NC(=O)CCNC(C)=O)C(=O)N[C@H](C(=O)N[C@@H](CCCCN)C(=O)N[C@H](C(=O)N[C@@H](CC(=O)O)C(=O)N[C@H](C(=O)N1CCC[C@H]1C(=O)N[C@@H](CC(=O)O)C(=O)N[C@@H](CCSC)C(=O)N[C@H](C(=O)NCCC(N)=O)C(C)C)[C@@H](C)CC)[C@@H](C)O)C(C)C [IVKTDIPDMV] (Ac-[βAla]IVKTDIPDMV[βAla]-NH2)
remaining at 24 h [1, 8]: 96%
remaining at 24 h ([1]; hUVECs in culture with fresh media (Cells condition), Figure 2B heatmap, pooled TAILS-derived soluble peptides in media on hUVECs (75000 per well, 48 well plate, 500 µL), 24 h, LC-MS, ratio to βFβA6 internal standard, 24 h / 0 h, N = 5, read-out: Fraction of peptide remaining at 24 hours: hUVEC Cells): 106%
remaining at 24 h [2, 9]: 101%
remaining at 24 h [3, 10]: 102%

CC(=O)NCCC(=O)N[C@@H](C)C(=O)N[C@@H](CO)C(=O)N[C@@H](C)C(=O)N1CCC[C@H]1C(=O)N[C@@H](C)C(=O)N[C@@H](CCCNC(=N)N)C(=O)N1CCC[C@H]1C(=O)N[C@@H](C)C(=O)N[C@@H](CC(C)C)C(=O)N[C@@H](CO)C(=O)NCCC(N)=O [ASAPARPALS] (Ac-[βAla]ASAPARPALS[βAla]-NH2)
remaining at 24 h [1, 8]: 88%
remaining at 24 h [2, 9]: 96%
remaining at 24 h [3, 10]: 94%
